{
  "source": "patent US12589090B2",
  "about": "“Compounds and methods for the treatment of degenerative disorders” (Aquilus Pharmaceuticals, Inc., priority 2019, dated 2026)",
  "assay": "Steady state oral/IV rat PK and compound penetration into spine and brain (Example 16)",
  "type": "in vivo, Sprague-Dawley rats",
  "details": "for concentration at 5 h / AUC(0-inf) / AUC(0-t) / half-life / Cmax: male, Sprague-Dawley; for AUC(0-inf) / AUC(0-t) / half-life / Cmax: plasma",
  "source_text": "It is important if one is observing biochemical effects in the spine and brain that one is able to show clear evidence that the compound being tested is in fact able to penetrate to those areas of the body. The present example orally doses compound 118 once per day (SID) for three days to a series of rats. On the third after dosing the rats were then sacrificed after taking blood samples and the level of compound measured in the spine and brain.\nProcedure: Twelve (12) male Sprague-Dawley rats were used. Fasting was conducted at least 16 hours prior to dose administration. The animals were placed into 4 groups of 3 animals per group. There was one intravenous (IV) group and three oral gavage (PO) groups (10 mg/Kg, 20 mg/Kg & 40 mg/Kg). The oral (PO) formulation for Groups 2-4 were prepared on the day of dosing at a target concentration of 0.5 mg/mL in 0.5% Methylcellulose (400 cps) to produce a white, homogeneous suspension. The study design is outlined in Table 4:\n[…] […] All blood samples were immediately placed on ice until processing. Whole blood samples were centrifuged at 2200×g for 10 minutes in a refrigerated centrifuge (5±3° C.) to isolate plasma. The plasma samples were transferred to individual polypropylene vials and immediately placed on dry ice before storage at nominally −20±5° C. The plasma samples sometime later were then thawed and extracted and analyzed by high pressure liquid chromatography (HPLC) coupled to Mass Spectrometery (MS). Pharmacokinetic parameters were estimated using WinNonlin® pharmacokinetic software (Version No. 5.2.1) using a non-compartmental approach consistent with the PO route of administration. The rodents were then sacrificed. On Day 3, five hours after dosing, animals were euthanized and whole brain and spine were removed, washed with saline and flash frozen until storage at nominally −70° C. before transfer for concentration analysis. The plasma, brain and spinal tissue samples were analyzed for test article concentration using a Research Grade LC-MS/MS Assay.",
  "key": {"[1]": {"details": "rat, iv, 1 mg/kg, DAY 1, 1 mg/kg IV"}, "[2]": {"details": "rat, iv, 1 mg/kg, DAY 2, 1 mg/kg IV once per day"}, "[3]": {"details": "rat, iv, 1 mg/kg, DAY 3, 1 mg/kg IV once per day"}, "[4]": {"details": "rat, po, 10 mg/kg, DAY 1, 10 mg/kg PO"}, "[5]": {"details": "rat, po, 10 mg/kg, DAY 2, 10 mg/kg PO once per day"}, "[6]": {"details": "rat, po, 10 mg/kg, DAY 3, 10 mg/kg PO once per day"}, "[7]": {"details": "rat, po, 20 mg/kg, DAY 1, 20 mg/kg PO"}, "[8]": {"details": "rat, po, 20 mg/kg, DAY 2, 20 mg/kg PO once per day"}, "[9]": {"details": "rat, po, 20 mg/kg, DAY 3, 20 mg/kg PO once per day"}, "[10]": {"details": "rat, po, 40 mg/kg, DAY 1, 40 mg/kg PO"}, "[11]": {"details": "rat, po, 40 mg/kg, DAY 2, 40 mg/kg PO once per day"}, "[12]": {"details": "rat, po, 40 mg/kg, DAY 3, 40 mg/kg PO once per day"}},
  "note": "Where two headings read alike, the source gives them in different places.",
  "data": [
    {"smiles": "[2H]C([2H])([2H])c1ccc(C#Cc2ccc(S(=O)(=O)N[C@H](Cc3c[nH]c4ccccc34)C(=O)O)s2)cc1", "note": "[Compound 118, (R)-3-(1H-Indol-3-yl)-2-[5-(4-trideuteromethyl-phenylethynyl)-thiophene-2-sulfonylamino]-propionic acid-(D3, 98%)]", "values": [
      {"measurement": "dose linearity in plasma", "setting": "10, 20 and 40 mg/Kg oral doses, rat", "result": "exhibited dose linearity in plasma"},
      {"measurement": "concentration at 5 h", "setting": "brain, 10-40 mg/Kg daily oral dose, Day 3, rat, highest level at 40 mg/Kg, read-out: Compound level in the brain", "result": "30 to 84", "unit": "ng/mL"},
      {"measurement": "concentration at 5 h", "setting": "rat, brain, Day 3, five hours after dosing, 10 mg/kg PO once per day, read-out: Brain", "result": 30.2, "unit": "ng/mL"},
      {"measurement": "concentration at 5 h", "setting": "rat, brain, Day 3, five hours after dosing, 20 mg/kg PO once per day, read-out: Brain", "result": 42.1, "unit": "ng/mL"},
      {"measurement": "concentration at 5 h", "setting": "rat, brain, Day 3, five hours after dosing, 40 mg/kg PO once per day, read-out: Brain", "result": 84.6, "unit": "ng/mL"},
      {"measurement": "AUC(0-inf)", "setting": "[1]", "result": 1820, "unit": "ng·h/mL"},
      {"measurement": "AUC(0-t)", "setting": "[1]", "result": 1810, "unit": "ng·h/mL"},
      {"measurement": "half-life", "setting": "[1]", "result": 0.97, "unit": "h"},
      {"measurement": "AUC(0-inf)", "setting": "[2]", "result": 1170, "unit": "ng·h/mL"},
      {"measurement": "AUC(0-t)", "setting": "[2]", "result": 1170, "unit": "ng·h/mL"},
      {"measurement": "half-life", "setting": "[2]", "result": 0.936, "unit": "h"},
      {"measurement": "AUC(0-inf)", "setting": "[3]", "result": 1720, "unit": "ng·h/mL"},
      {"measurement": "AUC(0-t)", "setting": "[3]", "result": 1650, "unit": "ng·h/mL"},
      {"measurement": "half-life", "setting": "[3]", "result": 0.89, "unit": "h"},
      {"measurement": "AUC(0-inf)", "setting": "[4]", "result": 3880, "unit": "ng·h/mL"},
      {"measurement": "AUC(0-t)", "setting": "[4]", "result": 3770, "unit": "ng·h/mL"},
      {"measurement": "Cmax", "setting": "[4]", "result": 1170, "unit": "ng/mL"},
      {"measurement": "half-life", "setting": "[4]", "result": 1.29, "unit": "h"},
      {"measurement": "AUC(0-inf)", "setting": "[5]", "result": 4480, "unit": "ng·h/mL"},
      {"measurement": "AUC(0-t)", "setting": "[5]", "result": 4390, "unit": "ng·h/mL"},
      {"measurement": "Cmax", "setting": "[5]", "result": 1340, "unit": "ng/mL"},
      {"measurement": "half-life", "setting": "[5]", "result": 1.24, "unit": "h"},
      {"measurement": "AUC(0-inf)", "setting": "[6]", "result": 12600, "unit": "ng·h/mL"},
      {"measurement": "AUC(0-t)", "setting": "[6]", "result": 4010, "unit": "ng·h/mL"},
      {"measurement": "Cmax", "setting": "[6]", "result": 1450, "unit": "ng/mL"},
      {"measurement": "half-life", "setting": "[6]", "result": 1.59, "unit": "h"},
      {"measurement": "AUC(0-inf)", "setting": "[7]", "result": 6520, "unit": "ng·h/mL"},
      {"measurement": "AUC(0-t)", "setting": "[7]", "result": 6410, "unit": "ng·h/mL"},
      {"measurement": "Cmax", "setting": "[7]", "result": 2140, "unit": "ng/mL"},
      {"measurement": "half-life", "setting": "[7]", "result": 1.2, "unit": "h"},
      {"measurement": "AUC(0-inf)", "setting": "[8]", "result": 4730, "unit": "ng·h/mL"},
      {"measurement": "AUC(0-t)", "setting": "[8]", "result": 4650, "unit": "ng·h/mL"},
      {"measurement": "Cmax", "setting": "[8]", "result": 2150, "unit": "ng/mL"},
      {"measurement": "half-life", "setting": "[8]", "result": 1.28, "unit": "h"},
      {"measurement": "AUC(0-inf)", "setting": "[9]", "result": 10100, "unit": "ng·h/mL"},
      {"measurement": "AUC(0-t)", "setting": "[9]", "result": 8820, "unit": "ng·h/mL"},
      {"measurement": "Cmax", "setting": "[9]", "result": 3850, "unit": "ng/mL"},
      {"measurement": "half-life", "setting": "[9]", "result": 1.02, "unit": "h"},
      {"measurement": "AUC(0-inf)", "setting": "[10]", "result": 15800, "unit": "ng·h/mL"},
      {"measurement": "AUC(0-t)", "setting": "[10]", "result": 15600, "unit": "ng·h/mL"},
      {"measurement": "Cmax", "setting": "[10]", "result": 5020, "unit": "ng/mL"},
      {"measurement": "half-life", "setting": "[10]", "result": 1.01, "unit": "h"},
      {"measurement": "AUC(0-inf)", "setting": "[11]", "result": 12200, "unit": "ng·h/mL"},
      {"measurement": "AUC(0-t)", "setting": "[11]", "result": 12200, "unit": "ng·h/mL"},
      {"measurement": "Cmax", "setting": "[11]", "result": 5570, "unit": "ng/mL"},
      {"measurement": "half-life", "setting": "[11]", "result": 1.02, "unit": "h"},
      {"measurement": "AUC(0-inf)", "setting": "[12]", "result": 15800, "unit": "ng·h/mL"},
      {"measurement": "AUC(0-t)", "setting": "[12]", "result": 15600, "unit": "ng·h/mL"},
      {"measurement": "Cmax", "setting": "[12]", "result": 5020, "unit": "ng/mL"},
      {"measurement": "half-life", "setting": "[12]", "result": 1.01, "unit": "h"},
      {"measurement": "concentration at 5 h", "setting": "rat, spine, Day 3, five hours after dosing, 10 mg/kg PO once per day, read-out: Spine", "result": 15.6, "unit": "ng/mL"},
      {"measurement": "concentration at 5 h", "setting": "rat, spine, Day 3, five hours after dosing, 20 mg/kg PO once per day, read-out: Spine", "result": 18.3, "unit": "ng/mL"},
      {"measurement": "concentration at 5 h", "setting": "rat, spine, Day 3, five hours after dosing, 40 mg/kg PO once per day, read-out: Spine", "result": 31, "unit": "ng/mL"},
      {"measurement": "concentration at 5 h", "setting": "spine, 10-40 mg/Kg daily oral dose, Day 3, rat, highest level at 40 mg/Kg, read-out: Compound level in the spine", "result": "15 to 31", "unit": "ng/mL"}
    ]}
  ]
}
